Numbering of substitutions follows the chain as printed.
Columns and labels:
Q272H PXR = target: T1, Q272H PXR (Homo sapiens, UniProt O75469, Q272H); assay: yeast two-hybrid screen of PXR mutants; format: cell-based; conditions: Q272H mutation at the surface AF-2 site
T1 sequence (O75469 1-434 Q272H): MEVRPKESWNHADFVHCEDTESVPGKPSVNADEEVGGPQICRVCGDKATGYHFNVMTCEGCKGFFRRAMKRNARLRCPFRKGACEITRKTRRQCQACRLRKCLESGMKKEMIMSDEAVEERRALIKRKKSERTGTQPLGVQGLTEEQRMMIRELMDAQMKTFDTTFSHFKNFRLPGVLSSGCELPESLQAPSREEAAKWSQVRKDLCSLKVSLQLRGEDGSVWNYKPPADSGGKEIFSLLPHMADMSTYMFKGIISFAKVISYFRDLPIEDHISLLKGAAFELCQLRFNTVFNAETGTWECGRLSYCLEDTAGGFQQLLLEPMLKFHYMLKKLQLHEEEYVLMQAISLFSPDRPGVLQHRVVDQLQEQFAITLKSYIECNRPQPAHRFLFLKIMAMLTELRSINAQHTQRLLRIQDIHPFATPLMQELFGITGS

[1] = test system: constitutively active pocket-filling mutants of PXR; assay: antagonism of constitutively active pocket-filling mutants of PXR; format: cell-based; conditions: double and triple mutant forms
PXR [2] = target: T2, PXR (Homo sapiens, UniProt O75469); conditions: sustained for at least 48–72 hours; ref Fuchs et al., 2012; cited from earlier work
T2 sequence (O75469 1-434): T1 sequence (O75469 1-434 Q272H) with H272Q

T248E/K277Q form of PXR = conditions: ref Wang et al., 2007; cited from earlier work
PXR LBD = conditions: ref Xue et al., 2007; cited from earlier work
PXR [3] = conditions: ref Poulton et al., 2012; cited from earlier work

CC(=O)N1CCN(c2ccc(OCC3COC(Cn4ccnc4)(c4ccc(Cl)cc4Cl)O3)cc2)CC1 (stereo not drawn) [ketoconazole]
sensitivity of Q272H PXR to the antagonist (Q272H PXR): insensitive | antagonism of constitutively active pocket-filling PXR mutants [1]: still susceptible to antagonism | concentration needed to antagonize PXR activation in vivo (PXR [2]): > 10 µM | antagonism of double-mutant T248E/K277Q PXR (T248E/K277Q form of PXR): not susceptible to antagonism

O=S(=O)(c1ccccc1)N(CC(F)(F)F)c1ccc(C(O)(C(F)(F)F)C(F)(F)F)cc1 [T1317, T0901317]
Kd (PXR LBD): 11 nM

C[S+]([O-])CCCCN=C=S (stereo not drawn) [sulphoraphane, sulforaphane]
effect in a humanized PXR mouse model (PXR [3]): absence of effect
